{
  "source": "patent US7579368B2",
  "about": "“Cis-imidazolines” (Hoffman-La Roche Inc., priority 2005, dated 2009)",
  "note": "Counter-ions that a name gives are not always drawn.",
  "data": [
    {"target": "interaction between p53 and MDM2 proteins (recombinant GST-tagged MDM2 and p53 peptide) (Homo sapiens, UniProt Q00987)", "sequence (Q00987 whole entry)": "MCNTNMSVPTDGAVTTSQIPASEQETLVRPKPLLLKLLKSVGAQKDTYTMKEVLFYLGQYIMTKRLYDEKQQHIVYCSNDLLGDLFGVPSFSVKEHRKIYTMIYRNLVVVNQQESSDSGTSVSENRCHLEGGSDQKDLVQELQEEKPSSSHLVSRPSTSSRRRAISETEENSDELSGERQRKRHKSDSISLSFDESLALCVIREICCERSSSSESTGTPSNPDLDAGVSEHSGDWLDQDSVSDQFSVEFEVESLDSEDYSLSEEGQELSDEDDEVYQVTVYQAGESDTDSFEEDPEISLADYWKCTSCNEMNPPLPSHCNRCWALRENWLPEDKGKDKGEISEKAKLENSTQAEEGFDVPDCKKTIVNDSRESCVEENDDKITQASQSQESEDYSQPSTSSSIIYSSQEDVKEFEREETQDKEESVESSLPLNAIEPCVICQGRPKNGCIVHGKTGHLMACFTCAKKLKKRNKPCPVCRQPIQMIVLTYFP", "experiment": "HTRF assay of inhibition of the p53-MDM2 interaction (GST-MDM2 / biotinylated p53 peptide)", "assay_type": "binding", "conditions": "90 nM biotinylated p53 peptide, 160 ng/ml GST-MDM2, 37° C. 1 h", "method": "The ability of the compounds to inhibit the interaction between p53 and MDM2 proteins was measured by an HTRF (homogeneous time-resolved fluorescence) assay in which recombinant GST-tagged MDM2 binds to a peptide that resembles the MDM2-interacting region of p53 (Lane et al.). Binding of GST-MDM2 protein and p53-peptide (biotinylated on its N-terminal end) is registered by the FRET (fluorescence resonance energy transfer) between Europium (Eu)-labeled anti-GST antibody and streptavidin-conjugated Allophycocyanin (APC).\nTest is performed in black flat-bottom 384-well plates (Costar) in a total volume of 40 uL containing: 90 nM biotinylated peptide, 160 ng/ml GST-MDM2, 20 nM streptavidin-APC (PerkinElmerWallac), 2 nM Eu-labeled anti-GST-antibody (PerkinElmerWallac), 0.2% bovine serum albumin (BSA), 1 mM dithiothreitol (DTT) and 20 mM […] (TBS) buffer as follows: Add 10 uL of GST-MDM2 (640 ng/ml working solution) in reaction buffer to each well. Add 10 uL diluted compounds (1:5 dilution in reaction buffer) to each well, mix by shaking. Add 20 uL biotinylated p53 peptide (180 nM working solution) in reaction buffer to each well and mix on shaker. Incubate at 37° C. for 1 h. Add 20 uL streptavidin-APC and Eu-anti-GST antibody mixture (6 nM Eu-anti-GST and 60 nM streptavidin-APC working solution) in TBS buffer with 0.2% BSA, shake at room temperature for 30 minutes and read using a TRF-capable plate reader at 665 and 615 nm (Victor 5, Perkin ElmerWallac). If not specified, the reagents were purchased from Sigma Chemical Co.", "units": {"IC50": "nM"}, "values": [
      {"smiles": "CCOc1cc(Cl)c(S(N)(=O)=O)cc1C1=N[C@@H](c2ccc(Cl)cc2)[C@@H](c2ccc(Cl)cc2)N1C(=O)N1CCN(CC(=O)N2CCOCC2)CC1", "note": "[Example 34, 5-{(4S,5R)-4,5-Bis-(4-chloro-phenyl)-1-[4-(2-morpholin-4-yl-2-oxo-ethyl)-piperazine-1-carbonyl]-4,5-dihydro-1H-imidazol-2-yl}-2-chloro-4-ethoxy-benzenesulfonamide]", "IC50": 9},
      {"smiles": "CCOc1cc(C#N)ccc1C1=N[C@@H](c2ccc(Cl)cc2)[C@@H](c2ccc(Cl)cc2)N1C(=O)N1CCN(CCO)CC1", "note": "[Example 63, 4-{(4S,5R)-4,5-Bis-(4-chloro-phenyl)-1-[4-(2-hydroxy-ethyl)-piperazine-1-carbonyl]-4,5-dihydro-1H-imidazol-2-yl}-3-ethoxy-benzonitrile]", "IC50": 9},
      {"smiles": "CCOc1ccc(S(=O)(=O)N(CCOC)CCOC)cc1C1=NC(c2ccc(Cl)cc2)C(c2ccc(Cl)cc2)N1C(=O)N1CCNC(=O)C1", "note": "(stereo not shown) [Example 105, 3-[4,5-Bis-(4-chloro-phenyl)-1-(3-oxo-piperazine-1-carbonyl)-4,5-dihydro-1H-imidazol-2-yl]-4-ethoxy-N,N-bis-(2-methoxy-ethyl)-benzenesulfonamide]", "IC50": 57},
      {"smiles": "CCOc1ccc(S(=O)(=O)NC(C)COC)cc1C1=NC(c2ccc(Cl)cc2)C(c2ccc(Cl)cc2)N1C(=O)N1CCN(CC(=O)NC)CC1", "note": "(stereo not shown) [Example 130, 2-(4-{4,5-Bis-(4-chloro-phenyl)-2-[2-ethoxy-5-(2-methoxy-1-methyl-ethylsulfamoyl)-phenyl]-4,5-dihydro-imidazole-1-carbonyl}-piperazin-1-yl)-N-methyl-acetamide]", "IC50": 57},
      {"smiles": "CCOc1cc(Cl)c(S(=O)(=O)N2CCCC2)cc1C1=N[C@@H](c2ccc(Cl)cc2)[C@@H](c2ccc(Cl)cc2)N1C(=O)N1CCN(CCS(C)(=O)=O)CC1", "note": "[Example 174, [(4S,5R)-2-[4-Chloro-2-ethoxy-5-(pyrrolidine-1-sulfonyl)-phenyl]-4,5-bis-(4-chloro-phenyl)-4,5-dihydro-imidazol-1-yl]-[4-(2-methanesulfonyl-ethyl)-piperazin-1-yl]-methanone hydrochloride]", "IC50": 5},
      {"smiles": "CCOc1cc(Cl)c(S(=O)(=O)N2CCCCC2)cc1C1=N[C@@H](c2ccc(Cl)cc2)[C@@H](c2ccc(Cl)cc2)N1C(=O)N1CCN(CC(=O)N2CCOCC2)CC1", "note": "[Example 175, 2-{4-[(4S,5R)-2-[4-Chloro-2-ethoxy-5-(piperidine-1-sulfonyl)-phenyl]-4,5-bis-(4-chloro-phenyl)-4,5-dihydro-imidazole-1-carbonyl]-piperazin-1-yl}-1-morpholin-4-yl-ethanone hydrochloride]", "IC50": 5},
      {"smiles": "CCOc1cc(Cl)c(C#N)cc1C1=N[C@@H](c2ccc(Cl)cc2)[C@@H](c2ccc(Cl)cc2)N1C(=O)N1CCNC(=O)C1", "note": "[Example 234, 5-[(4S,5R)-4,5-Bis-(4-chloro-phenyl)-1-(3-oxo-piperazine-1-carbonyl)-4,5-dihydro-1H-imidazol-2-yl]-2-chloro-4-ethoxy-benzonitrile]", "IC50": 150},
      {"smiles": "CCOc1cc(N(C(=O)N2CCNC(=O)C2)S(C)(=O)=O)ccc1C1=N[C@@H](c2ccc(Cl)cc2)[C@@H](c2ccc(Cl)cc2)N1C(=O)N1CCNC(=O)C1", "note": "[Example 275, N-{4-[(4S,5R)-4,5-Bis-(4-chloro-phenyl)-1-(3-oxo-piperazine-1-carbonyl)-4,5-dihydro-1H-imidazol-2-yl]-3-ethoxy-phenyl}-N-(3-oxo-piperazine-1-carbonyl)-methanesulfonamide]", "IC50": 310},
      {"smiles": "CCOc1cc(NC(=O)C(C)(C)C)ccc1C1=N[C@@H](c2ccc(Cl)cc2)[C@@H](c2ccc(Cl)cc2)N1C(=O)N1CCNC(=O)C1", "note": "[Example 277, N-{4-[(4S,5R)-4,5-Bis-(4-chloro-phenyl)-1-(3-oxo-piperazine-1-carbonyl)-4,5-dihydro-1H-imidazol-2-yl]-3-ethoxy-phenyl}-2,2-dimethyl-propionamide]", "IC50": 160},
      {"smiles": "CCOc1cc(C#CC(C)(C)C)ccc1C1=N[C@@H](c2ccc(Cl)cc2)[C@@H](c2ccc(Cl)cc2)N1C(=O)N1CCN(CC(=O)N2CCOCC2)CC1", "note": "[Example 405, 2-(4-{(4S,5R)-4,5-Bis-(4-chloro-phenyl)-2-[4-(3,3-dimethyl-but-1-ynyl)-2-ethoxy-phenyl]-4,5-dihydro-imidazole-1-carbonyl}-piperazin-1-yl)-1-morpholin-4-yl-ethanone hydrochloride]", "IC50": 544}
    ]}
  ]
}
